Reference: patent US20190275022A1, “METHODS, COMPOSITIONS, AND COMPOUNDS FOR TREATMENT OF DERMATOLOGICAL AND OCULAR CONDITIONS” (Allergan, Inc., priority 2016, published 2019)
Like-named read-outs stand apart in the source and are kept apart here.

Assays:
[1] = tested on: lipopolysaccharide (LPS)-induced ocular inflammation model; assay: LPS-induced ocular inflammation model, aqueous humor cells and protein, survival; format: in vivo; details: for % Efficacy, Cell % Inhibition / % Efficacy, Protein % Inhibition: aqueous humor
Description: Male Lewis rats, weighing about 250 to 270 grams, were purchased from Charles River and used for all studies. Lipopolysaccharide (LPS) was made fresh in sterile saline (1 mg/ml), kept on ice, and administered by footpad injection at a total dose of 100 μg (100 μl) per animal. Twenty-four hours later, at the time of maximal inflammation in this model, the rats were euthanized by CO2 inhalation. Aqueous humor was collected and analyzed for protein concentration and cell counts.
For the calculation of the percentage of cell inhibition, the number of cells in treatment group were divided by the average number of cells in vehicle group times 100. For the calculation of the percentage of protein inhibition, the amount protein in treatment group was divided by the average protein in the vehicle group times 100.
Aqueous humor was collected from both eyes by anterior chamber puncture, performed under an operating microscope, using a 30-gauge needle and 25 μl Hamilton syringe (Catalog number 1702). aqueous humor from both eyes was pooled and kept on ice until further analysis.
Protein determination was carried out using a standard Bradford method. Cell counting was done by using either a hemocytometer or an automated cell counter (BioRad TC10).

human PDE4B2 = human PDE4B2 (Homo sapiens, UniProt Q07343); assay: Phosphodiesterase assay, recombinant human PDE4B2 ([3H]cAMP hydrolysis); format: biochemical
Chain of human PDE4B2 (Q07343 1-564 isoform Q07343-2): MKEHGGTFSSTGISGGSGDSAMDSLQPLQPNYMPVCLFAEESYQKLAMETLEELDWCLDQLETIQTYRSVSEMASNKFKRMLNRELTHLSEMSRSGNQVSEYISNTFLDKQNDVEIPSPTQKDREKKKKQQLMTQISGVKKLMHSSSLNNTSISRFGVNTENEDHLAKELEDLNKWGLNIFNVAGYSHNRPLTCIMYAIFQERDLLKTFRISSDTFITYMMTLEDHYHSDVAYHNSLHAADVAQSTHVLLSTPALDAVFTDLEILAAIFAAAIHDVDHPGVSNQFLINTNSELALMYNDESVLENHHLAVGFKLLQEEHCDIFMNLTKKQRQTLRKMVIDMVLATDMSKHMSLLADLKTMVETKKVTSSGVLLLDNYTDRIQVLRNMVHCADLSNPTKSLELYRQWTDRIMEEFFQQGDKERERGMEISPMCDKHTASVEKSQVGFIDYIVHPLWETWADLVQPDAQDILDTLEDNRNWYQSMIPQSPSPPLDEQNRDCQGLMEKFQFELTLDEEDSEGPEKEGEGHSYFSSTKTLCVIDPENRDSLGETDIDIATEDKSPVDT
Description: A phosphodiesterase assay was performed using recombinant human PDE expressed in a baculoviral system.
The assay consisted of a two-step procedure. Tritium-labeled cyclic AMP was hydrolyzed to 5′-AMP by phosphodiesterase. The 5′-AMP was then further hydrolyzed to adenosine by nucleotidase in snake venom. An anion-exchange resin bound all charged nucleotides and left [^3H]adenosine as the only labeled compound to be counted by liquid scintillation.
All compounds were tested at a 10 μM starting concentration with a 1 in 3, 8 point IC50. […] The IC50 of each compound and the standard inhibitor (Rolipram) was determined. The standard inhibitor value was compared to historical assay data to ensure that it was within an acceptable range.

PMBC TNF = details: data from literature; read-out: PMBC TNF Inhib. IC50; cited from earlier work
dry eye disease = assay: Example of treatment of dry eye disease (patient case); format: in vivo, human; details: eye drops once a day; after about 1 to 2 months
Source text: A person presents with a history of having gritty, itchy and burning sensations in the both eyes which was previously generally diagnose as dry eye and has been treated with artificial tear drops applied topically to the eye as needed. The patient complains that the artificial tear solutions require too many applications per day. Medical evaluation of the patient results in the identification of the patient's dry eye disease as being dry eye disease where tear production is presumed to be suppressed due to ocular inflammation associated with the dry eye disease. The patient is prescribed eye drops containing an effective amount of the compound of Formula I with instructions to apply medication once a day.

[2] = tested on: pruritus, atopic dermatitis; assay: Example of treatment of pruritus / atopic dermatitis (patient case); format: in vivo, human; details: topical cream once a day
Source text: A person presents with a history of chronic relapsing atopic dermatitis (eczema), with severe itching, beginning. Their rash is characterized by red, itchy eruptions on cheeks and legs. Patient's parents stated that during a flare-up child is irritable at home and severe scratching disrupts sleep at night. Patient also feels very self-conscious of rash and is socially withdrawn at school during a flare-up. History of treatment have included lukewarm soaking baths and the use of over the counter emollients and creams. Topical calcineurin inhibitors were reported to exacerbate pruritus. The patient is prescribed a topical cream of the compound of Formula I with instructions to apply medication once day.

[3] = tested on: Oxazolone (OXA) dermatitis in SKH1-E hairless mice; assay: Oxazolone-induced dermatitis model, topical or oral treatment, SCORAD and resolved lesions; format: in vivo; details: for day of statistically significant improvement in SCORAD clinical scores: topical, vs. vehicle
Description: Female SKH1-E hairless mice (Charles River) weighing approximately 25 g at 2-3 months of age were used in the following study. For model induction, the mice were sensitized on Day −7 (minus seven) by topical application of 50 μl of 5% Oxazolone (OXA) solubilized in ethanol on the hind flank. Dermatitis was elicited by repeated topical challenges with 50 μl of 0.1% Oxazolone every other day until the end of the study.
For administration of the test compounds, the test compounds were solubilized in a 70% ethanol/30% DMSO vehicle solution and kept at 4° C. Beginning on Day 0, the test compounds were administered twice daily (AM/PM) by topical application (50 μl volume) for 12 days. Betamethasone (0.12%) was used as a positive control and dosed once daily in the AM. Test article dosing and topical challenges were separated by at least 4 hours and all compounds were masked to investigators.
For clinical assessment, the degree of dermatitis was graded on a SCORAD (scoring atopic dermatitis) based scoring system of 0-3 (with 0=no symptoms, 1=Mild, 2=Moderate, 3=Severe) prior to challenge by a masked investigator.
(§1) For tissue collection, on the day of necropsy, animals were euthanized at 2 hours post final dose via CO2 inhalation with death verified by cervical dislocation. Whole blood was collected via cardiac puncture (˜250 μl) in EDTA/K^+ treated tubes for plasma analysis of drug concentrations. A rectangular strip of skin from the left side of treatment back area was collected for hematoxylin-eosin (H&E) stain. Prior to placing tissue in 10% formalin, the skin thickness was measured using a calibrated caliper (mm). Three 8 mm tissue punches were then collected from the right side of the treatment area and stored at −80° C. for cytokine protein (LUMINEX) or gene expression assays.

rosacea = assay: Example of treatment of rosacea (patient case); format: in vivo, human; details: topical one or twice a day; after about two days
Source text: A person presents with visible facial erythema and edema with telangiectases and visible papules and pustules resembling acne. […] Upon clinical examination, the patient is diagnosed with rosacea in its inflammatory phase. The patient is prescribed a topical composition comprising an effective amount of the compound of Formula I and instructed to apply the composition to the affected areas one or twice a day.

[4] = Plasma drug concentration after topical dosing in the dermatitis model (LC-MS/MS); format: in vivo
Description: as §1
The whole-blood samples collected in Example 2 were analyzed for drug concentrations. In particular, plasma samples were extracted by protein precipitation with acetonitrile and analyzed for drug concentrations by the bioanalytical laboratory using liquid chromatography tandem mass spectrometry (LC-MS/MS). Propranolol (200 ng/mL) was used as an internal standard for the extraction procedure. Working standards were prepared by series dilution (0.5 ng/mL) into acetonitrile from a stock solution of 10 ug/mL. All samples were analyzed using the API 5000 LC-MS/MS system in 0.1% formic acid in water.

Oral bio-availability = details: in vivo
plaque psoriasis = assay: Example of treatment of plaque psoriasis (patient case); format: in vivo, human; details: topical up to three times a day; after 1 to 4 months
Source text: A person presents with erythematous plaques covered with thick, silvery, shiny scales on the extensor surfaces of their elbows and knees. After a clinical evaluation, the patient is diagnosed with plaque psoriasis. The patient is prescribed a pharmaceutical composition containing an effective amount of the compound of Formula I with instructions to apply the composition topically to the plaques up to three times a day.

[5] = human PDE4B2, read-out: Enzymatic IC50
[6] = 0.01-0.5 mg/kg subcutaneously, dose dependent

N#Cc1ccc(Oc2ccc3c(c2)COB3O)cc1 [drawing 23]
% Survival ([1]; systemic dose 1.0 mg/kg): 100%
% Efficacy, Cell % Inhibition ([1]; systemic dose 1.0 mg/kg): 51%
% Efficacy, Protein % Inhibition ([1]; systemic dose 1.0 mg/kg): 13%

CCCNC(=O)COc1c(C(=O)Cc2c(Cl)cncc2Cl)ccc(OC)c1OC
% Survival ([1]; systemic dose 1.0 mg/kg): 100%
% Efficacy, Cell % Inhibition ([1]; systemic dose 1.0 mg/kg): 67%
% Efficacy, Protein % Inhibition ([1]; systemic dose 1.0 mg/kg): 29%

COc1cccc(Nc2c(C(N)=O)cnc3c(C)cc(S(=O)(=O)c4cccc(C(=O)N(C)C)c4)cc23)c1 [GSK-256066]
safety in the ocular inflammation model ([1]; rat, in vivo): resulted in death of the animals
% Survival ([1]; systemic dose 1.0 mg/kg): 0%
IC50 (human PDE4B2; [5]): 0.007 nM
IC50 (PMBC TNF): 0.01 nM

O=C(Nc1c(Cl)cncc1Cl)c1ccc(OC(F)F)c(OCC2CC2)c1 [roflumilast]
IC50 (PMBC TNF): 1.8 nM

CCOc1cc([C@@H](CS(C)(=O)=O)N2C(=O)c3cccc(NC(C)=O)c3C2=O)ccc1OC [drawing 22]
% Survival ([1]; systemic dose 10.0 mg/kg): 100%
% Efficacy, Cell % Inhibition ([1]; systemic dose 10.0 mg/kg): 94%
% Efficacy, Protein % Inhibition ([1]; systemic dose 10.0 mg/kg): 58%

CS(=O)(=O)Nc1ccc(C(=O)O[C@@H](Cc2c(Cl)c[n+]([O-])cc2Cl)c2ccc(OC(F)F)c(OCC3CC3)c2)cc1OCC1CC1 [Compound A]
gritty, itchy and burning sensations (dry eye disease): significant reduction
tear production (dry eye disease): enough of an increase in tear production that the artificial tear drops are needed much less frequently
percentage of cells in the aqueous humor [1, 6]: significantly reduced
percentage of protein in the aqueous humor [1, 6]: significantly reduced
% Survival ([1]; systemic dose 0.1 mg/kg): 100%
% Efficacy, Cell % Inhibition ([1]; systemic dose 0.1 mg/kg): 95%
% Efficacy, Protein % Inhibition ([1]; systemic dose 0.1 mg/kg): 67%
redness and eruptions on the skin ([2]; after approximately 3 weeks): significant reduction
scratching ([2]; within the first week): noticeable reduction in scratching
reduction of SCORAD clinical scores earlier than benchmark AN-2728 ([3]; topical 0.01-1% w/v, compared to AN-2728): 4 days
day of statistically significant improvement in SCORAD clinical scores [3]: ≤ 5 days
animals with resolved lesions ([3]; topically applied at 0.01%): approximately 60%
animals with resolved lesions ([3]; topically applied at 1%): approximately 90%
rosacea affected areas (rosacea): noticeable clearing of the affected areas
concentration at 2 h ([4]; mouse, in vivo, delivered topically to the skin, 2 hours post final dose, read-out: plasma concentrations): < 5 ng/mL
plasma concentrations ([4]; topical 0.01%, 8 of the 10 animals): below quantifiable limits
IC50 (human PDE4B2; [5]): 0.04 nM
IC50 (PMBC TNF): 0.03 nM
oral bio-availability (Oral bio-availability): does not show any oral bio-availability
psoriatic plaques (plaque psoriasis): almost completely disappeared
selectivity for PDE4 versus other PDEs (PDE4 versus other PDEs): greater than 50 fold

CCOc1cc([C@@H](CS(C)(=O)=O)N2C(=O)c3cccc(NC(C)=O)c3C2=O)ccc1OC [apremilast]
animals with resolved lesions ([3]; topically applied at 1%): approximately 40%
IC50 (PMBC TNF): 110 nM

O=C(Nc1c(Cl)cncc1Cl)c1ccc(OC(F)F)c(OCC2CC2)c1 [drawing 21]
% Survival ([1]; systemic dose 0.3 mg/kg): 100%
% Efficacy, Cell % Inhibition ([1]; systemic dose 0.3 mg/kg): 97%
% Efficacy, Protein % Inhibition ([1]; systemic dose 0.3 mg/kg): 77%

N#Cc1ccc(Oc2ccc3c(c2)COB3O)cc1 [AN-2728]
day of statistically significant improvement in SCORAD clinical scores [3]: ≥ 9 days
IC50 (human PDE4B2): 26 nM
IC50 (PMBC TNF): 170 nM
